Source: ChEMBL document CHEMBL1128138, “The synthesis, and dopamine D2 and serotonin 5-HT3 receptor affinity of 3-aza analogues (pyridyl) of 4-amino-5-chloro-2-methoxybenzamides” (Bioorg Med Chem Lett, 1995)

What was measured:
[1] = target: D(2) dopamine receptor (Homo sapiens, UniProt P14416); assay: Binding affinity towards dopamine D2 receptor
[2] = test system: Rattus norvegicus; assay: Ability to inhibit the Bezold-Jarisch reflex by i.v. administration; type: functional; settings: iv, read-out: ID50 (the source's name)

D(2) dopamine receptor, sequence (P14416 whole entry): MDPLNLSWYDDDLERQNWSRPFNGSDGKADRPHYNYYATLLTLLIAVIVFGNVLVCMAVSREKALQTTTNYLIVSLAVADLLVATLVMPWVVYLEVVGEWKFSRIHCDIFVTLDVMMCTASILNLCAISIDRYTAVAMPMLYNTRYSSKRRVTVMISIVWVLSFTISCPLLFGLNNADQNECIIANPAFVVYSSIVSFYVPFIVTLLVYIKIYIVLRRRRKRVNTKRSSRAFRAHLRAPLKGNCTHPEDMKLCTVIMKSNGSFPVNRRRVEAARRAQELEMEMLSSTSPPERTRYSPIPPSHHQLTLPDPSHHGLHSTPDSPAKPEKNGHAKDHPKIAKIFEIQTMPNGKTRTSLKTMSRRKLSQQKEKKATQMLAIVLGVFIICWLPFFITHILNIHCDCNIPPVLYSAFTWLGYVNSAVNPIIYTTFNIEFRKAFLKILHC

SMILES	Ki [1]	ED50 [2]
COc1nc(N)c(Cl)cc1C(=O)NC1CC2CCCC(C1)N2Cc1ccccc1 (centres undefined)	1.26 nM	–
COc1cc(N)c(Cl)cc1C(=O)NC1CC2CCC(C1)N2C (centres undefined)	–	0.8 µg/kg
COc1cc(N)c(Cl)cc1C(=O)NC1CC2CCCC(C1)N2Cc1ccccc1 (centres undefined)	0.251 nM	–
COc1cc(N)c(Cl)cc1C(=O)NC1CC2CCCC(C1)N2C (centres undefined)	–	0.4 µg/kg
